Patent US8192962B2, “Processes for detecting toxic substances” (Daikin Industries, Ltd., priority 2001, dated 2012)

Test system: Genes belonging to other category
Experiment: DNA chip mRNA expression in yeast, genes belonging to other category (Table 9)
Assay type: cell-based, Saccharomyces cerevisiae S288C
Protocol: Yeast (Saccharomyces cerevisiae S288C (α SUC2mal mel gap2 CUP1)) were incubated at 25° C. on YPD medium (yeast extract 1%, polypepton 2%, glucose 2%). One of toxic chemical substances was added to the cells at logarithmic growth phase, and the cells were further incubated for two hours. Cells were cultured without any chemical substance in the same condition, and were used as control. Concentrations of the chemical substances were defined to inhibit the growth of the yeast but not lead to death.
After completion of the incubation, the culture was centrifuged to collect the cells. To the cells, sodium acetate buffer (50 mM sodium acetate, 10 mM EDTA, 1% SDS) was added, and the mixture was shaken at 65° C. for five minutes, followed by returning to room temperature, and obtaining the supernatant, of which the procedures were repeated two times. To the supernatant, ½ amount of a solution of phenol/chloroform was added, and the mixture was centrifuged to give a supernatant, which was added with an equal amount of chloroform, and the mixture was centrifuged to give a supernatant. To the supernatant, an equal amount of isopropanol containing 0.3 M sodium acetate was added, and the mixture was allowed to stand at room temperature for 30 minutes, after which the mixture was centrifuged to give a sediment of the whole RNAs. Seventy % ethanol was added to the sediment, and the mixture was again centrifuged to give a sediment, which was then dried and dissolved in water. mRNA was isolated from the whole RNAs as followings. In view of the fact that a poly A chain is attached to the 3′ terminus of mRNA, a polynucleotide having a poly T structure which was immobilized on the surface of latex beads was used to trap the mRNA, and then the mRNA was washed and eluted with spine column (Oligotex-dT30<Super>mRNA Purification Kit, Takara). Reverse transcription of the mRNA was conducted with a reverse transcriptase (Super Script II Reverse Transcriptase; catalogue No. 18064-014, GibcoBRL) using fluorescence-labeled nucleotides to give cDNAs that were introduced with Cy3-dUTP or Cy5-dUTP during the reverse transcription.
The labeled cDNAs were dissolved in TE buffer (10mM Tris-HCl/1 mM EDTA, pH8.0), and the solution was dropped on the DNA chip containing the whole genes of yeast (DNA Chip Research Inc. Japan) so that the cDNAs were hybridized on the DNA chip at 65° C. for over 12 hours. The fluoresces intensity of the DNA chip was read with a scanner, and the ratio relative to the fluorescence intensity resulting from the absence of chemical substance was estimated as the following, which is shown in Tables 1 to 9: […]

CCCCCCCCCCCCOS(=O)(=O)[O-].[Na+] [(18), sodium lauryl sulfate]
The level of expressed mRNA in the presence of chemical substance/The level of expressed mRNA in the absence of chemical substance (yeast gene YJL035C): 1.0
The level of expressed mRNA in the presence of chemical substance/The level of expressed mRNA in the absence of chemical substance (yeast gene YJL073W): 1.0
The level of expressed mRNA in the presence of chemical substance/The level of expressed mRNA in the absence of chemical substance (yeast gene YJL089W): 1.1
The level of expressed mRNA in the presence of chemical substance/The level of expressed mRNA in the absence of chemical substance (yeast gene YJL103C): 1.2
The level of expressed mRNA in the presence of chemical substance/The level of expressed mRNA in the absence of chemical substance (yeast gene YJL116C): 0.7
The level of expressed mRNA in the presence of chemical substance/The level of expressed mRNA in the absence of chemical substance (yeast gene YJL164C): 1.7
The level of expressed mRNA in the presence of chemical substance/The level of expressed mRNA in the absence of chemical substance (yeast gene YJL210W): 1.0
The level of expressed mRNA in the presence of chemical substance/The level of expressed mRNA in the absence of chemical substance (yeast gene YJR004C): 0.4
The level of expressed mRNA in the presence of chemical substance/The level of expressed mRNA in the absence of chemical substance (yeast gene YJR019C): 1.4
The level of expressed mRNA in the presence of chemical substance/The level of expressed mRNA in the absence of chemical substance (yeast gene YJR036C): 1.2
The level of expressed mRNA in the presence of chemical substance/The level of expressed mRNA in the absence of chemical substance (yeast gene YJR047C): 0.9
The level of expressed mRNA in the presence of chemical substance/The level of expressed mRNA in the absence of chemical substance (yeast gene YJR050W): 1.1
The level of expressed mRNA in the presence of chemical substance/The level of expressed mRNA in the absence of chemical substance (yeast gene YJR058C): 1.2
The level of expressed mRNA in the presence of chemical substance/The level of expressed mRNA in the absence of chemical substance (yeast gene YJR086W): 1.6
The level of expressed mRNA in the presence of chemical substance/The level of expressed mRNA in the absence of chemical substance (yeast gene YJR117W): 0.9
The level of expressed mRNA in the presence of chemical substance/The level of expressed mRNA in the absence of chemical substance (yeast gene YJR119C): 0.9
The level of expressed mRNA in the presence of chemical substance/The level of expressed mRNA in the absence of chemical substance (yeast gene YJR123W): 0.9
The level of expressed mRNA in the presence of chemical substance/The level of expressed mRNA in the absence of chemical substance (yeast gene YJR145C): 0.9
The level of expressed mRNA in the presence of chemical substance/The level of expressed mRNA in the absence of chemical substance (yeast gene YKL007W): 1.3
The level of expressed mRNA in the presence of chemical substance/The level of expressed mRNA in the absence of chemical substance (yeast gene YKL008C): 1.9
The level of expressed mRNA in the presence of chemical substance/The level of expressed mRNA in the absence of chemical substance (yeast gene YKL013C): 1.7
The level of expressed mRNA in the presence of chemical substance/The level of expressed mRNA in the absence of chemical substance (yeast gene YKL039W): 1.3
The level of expressed mRNA in the presence of chemical substance/The level of expressed mRNA in the absence of chemical substance (yeast gene YKL041W): 1.3
The level of expressed mRNA in the presence of chemical substance/The level of expressed mRNA in the absence of chemical substance (yeast gene YKL056C): 1.2
The level of expressed mRNA in the presence of chemical substance/The level of expressed mRNA in the absence of chemical substance (yeast gene YKL079W): 1.2
The level of expressed mRNA in the presence of chemical substance/The level of expressed mRNA in the absence of chemical substance (yeast gene YKL096W): 0.7
The level of expressed mRNA in the presence of chemical substance/The level of expressed mRNA in the absence of chemical substance (yeast gene YKL117W): 1.8
The level of expressed mRNA in the presence of chemical substance/The level of expressed mRNA in the absence of chemical substance (yeast gene YKL165C): 1.0
The level of expressed mRNA in the presence of chemical substance/The level of expressed mRNA in the absence of chemical substance (yeast gene YKL171W): 1.2
The level of expressed mRNA in the presence of chemical substance/The level of expressed mRNA in the absence of chemical substance (yeast gene YKL193C): 2.3
The level of expressed mRNA in the presence of chemical substance/The level of expressed mRNA in the absence of chemical substance (yeast gene YLR093C): 3.2
The level of expressed mRNA in the presence of chemical substance/The level of expressed mRNA in the absence of chemical substance (yeast gene YLR120C): 2.9
The level of expressed mRNA in the presence of chemical substance/The level of expressed mRNA in the absence of chemical substance (yeast gene YLR136C): 1.4
The level of expressed mRNA in the presence of chemical substance/The level of expressed mRNA in the absence of chemical substance (yeast gene YLR178C): 3.6
The level of expressed mRNA in the presence of chemical substance/The level of expressed mRNA in the absence of chemical substance (yeast gene YLR206W): 1.2
The level of expressed mRNA in the presence of chemical substance/The level of expressed mRNA in the absence of chemical substance (yeast gene YLR250W): 2.2
The level of expressed mRNA in the presence of chemical substance/The level of expressed mRNA in the absence of chemical substance (yeast gene YLR327C): 5.3
The level of expressed mRNA in the presence of chemical substance/The level of expressed mRNA in the absence of chemical substance (yeast gene YLR356W): 1.0
The level of expressed mRNA in the presence of chemical substance/The level of expressed mRNA in the absence of chemical substance (yeast gene YLR362W): 1.3
The level of expressed mRNA in the presence of chemical substance/The level of expressed mRNA in the absence of chemical substance (yeast gene YLR391W): 0.9
The level of expressed mRNA in the presence of chemical substance/The level of expressed mRNA in the absence of chemical substance (yeast gene YLR429W): 0.9
The level of expressed mRNA in the presence of chemical substance/The level of expressed mRNA in the absence of chemical substance (yeast gene YML130C): 1.2
The level of expressed mRNA in the presence of chemical substance/The level of expressed mRNA in the absence of chemical substance (yeast gene YMR004W): 1.3
The level of expressed mRNA in the presence of chemical substance/The level of expressed mRNA in the absence of chemical substance (yeast gene YMR091C): 1.2
The level of expressed mRNA in the presence of chemical substance/The level of expressed mRNA in the absence of chemical substance (yeast gene YMR094W): 1.0
The level of expressed mRNA in the presence of chemical substance/The level of expressed mRNA in the absence of chemical substance (yeast gene YMR104C): 1.9
The level of expressed mRNA in the presence of chemical substance/The level of expressed mRNA in the absence of chemical substance (yeast gene YMR110C): 2.5
The level of expressed mRNA in the presence of chemical substance/The level of expressed mRNA in the absence of chemical substance (yeast gene YMR112C): 1.6
